Laboratory results as given in patent US8895596B2, “Cyclic benzimidazole derivatives useful as anti-diabetic agents” (Merck Sharp & Dohme Corp, priority 2010, dated 2014).

How the values were obtained:
[1] = molecular target: recombinant human AMPK complex 1 (containing α1β1γ1) (Homo sapiens, UniProt Q13131+Q9Y478); test: in vitro AMPK activation assay (AMPKSAMSF); assay type: biochemical; details: recombinant human AMPK complex 1 (α1β1γ1); for EC50: table
Method: AMPKSAMSF (in vitro AMPK Activation Assay)
The recombinant human AMPK complex 1 (containing α1β1γ1) was obtained from baculovirus expression system. Recombinant viruses were generated by cotransfection of AMPK/pBacPak9 clones with Baculogold baculovirus DNA (Pharmingen) in spodoptera frugiperda 21 cells according to the manufacturer's instructions. Each round of virus amplification was performed for 5 days in Grace's medium containing 10% serum. Virus that had been subjected to three rounds of amplification was used for all protein production procedures. To express the AMPK complex, sf21 cells were adapted to serum free medium (SF900 II, Invitrogen) by sequential dilution from serum containing stocks into SF900II medium and maintained in shaker flasks at 90 rpm at 27° C. The recombinant AMPK enzyme complex was produced by triple infection, one recombinant virus for each of the subunits, in sf21 cells under serum free conditions. Cells were infected in log phase, 1×10^6 cells/ml, at a multiplicity of infection […] were harvested by centrifugation at 10,000×g for 15 minutes after 72 hours of infection with viruses. The insect cell pellet from 2 liters of culture was resuspended in 50 ml lysis buffer (20 mM Tris-HCl, 50 mM NaCl, 50 mM NaF, 30 mM Na PPi, 0.25 M sucrose, 10 mM ZnCl2, 2 mM DTT, 0.4 mg/ml digitonin) and subjected to two cycles of freeze-thaw lysis in a dry-ice ethanol bath. Insoluble material was removed by centrifugation at 10,000×g and the supernatant was fractionated with use of polyethylene glycol (PEG). The protein fraction precipitating between 2.5 and 6% PEG was used for further purification using a Blue-Sepharose step (Zhou et al, J. Clin. Invest. 108, 1167-1174, 2001).
The in vitro AMPK activation assay is performed in a volume of 30 μl in a 384-well plate. Enzyme reactions were assembled in the microtiter plate by adding 15 μl of 2× enzyme in assay buffer (20 mM HEPES, pH 7.3, 5 mM MgCl2, 3 mM DTT, 0.01% Brij 35 and CamK Kinase, to activate AMPK) to wells which contained either DMSO or compound. The reaction was initiated with the addition of […] substrate mixture containing 200 μM ATP, and 3.0 μM fluorescently labeled SAMS (5-FAM-HMRSAMSGLHLVKRR-COOH) in assay buffer. After 45-minute incubation at 25° C., the reaction was stopped by the addition of 70 μl stop buffer (100 mM HEPES, pH 7.3, 40 mM EDTA, 0.015% Brij 35). Phosphorylated 5-FAM SAMS product is assessed using a Caliper EZ Reader LabChip microfluidics reader. Product conversion is determined by calculating the peak heights of the substrate and product and reporting the product/(product+substrate) peak ratio. The 10-point titration data were expressed as maximum AMP activation. The results were plotted using 4 parameter fit and the inflection point reflecting 50% of the maximum activation was reported as the EC50.

ob/ob and db/db mice = details: following 8 weeks of administration; cited from earlier work

Sequence of recombinant human AMPK complex 1 (containing α1β1γ1) (Q13131 whole entry): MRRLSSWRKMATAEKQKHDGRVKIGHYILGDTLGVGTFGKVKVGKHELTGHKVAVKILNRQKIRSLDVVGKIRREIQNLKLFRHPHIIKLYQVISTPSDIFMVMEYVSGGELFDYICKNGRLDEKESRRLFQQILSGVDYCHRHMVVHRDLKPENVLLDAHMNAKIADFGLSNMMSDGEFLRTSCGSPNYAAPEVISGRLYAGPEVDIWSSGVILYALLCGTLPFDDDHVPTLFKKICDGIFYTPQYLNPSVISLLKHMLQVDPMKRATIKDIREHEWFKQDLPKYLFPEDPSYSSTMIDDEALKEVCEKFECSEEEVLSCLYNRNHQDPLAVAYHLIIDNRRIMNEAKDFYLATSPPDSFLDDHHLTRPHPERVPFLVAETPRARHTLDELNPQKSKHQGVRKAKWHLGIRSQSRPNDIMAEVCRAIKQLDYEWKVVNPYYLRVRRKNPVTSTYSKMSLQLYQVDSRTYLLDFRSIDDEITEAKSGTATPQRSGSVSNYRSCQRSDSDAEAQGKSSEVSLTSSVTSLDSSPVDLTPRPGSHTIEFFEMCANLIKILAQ
Sequence of recombinant human AMPK complex 1 (containing α1β1γ1) (Q9Y478 whole entry): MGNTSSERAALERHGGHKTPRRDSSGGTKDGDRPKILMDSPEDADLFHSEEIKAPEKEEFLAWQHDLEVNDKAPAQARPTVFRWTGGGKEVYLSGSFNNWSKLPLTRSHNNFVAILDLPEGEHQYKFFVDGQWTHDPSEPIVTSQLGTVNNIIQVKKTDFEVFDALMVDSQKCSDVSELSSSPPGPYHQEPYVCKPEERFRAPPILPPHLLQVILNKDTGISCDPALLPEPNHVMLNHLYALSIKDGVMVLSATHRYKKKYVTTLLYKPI
Sequence of recombinant human AMPK complex 1 (containing α1β1γ1) (P54619 whole entry partner): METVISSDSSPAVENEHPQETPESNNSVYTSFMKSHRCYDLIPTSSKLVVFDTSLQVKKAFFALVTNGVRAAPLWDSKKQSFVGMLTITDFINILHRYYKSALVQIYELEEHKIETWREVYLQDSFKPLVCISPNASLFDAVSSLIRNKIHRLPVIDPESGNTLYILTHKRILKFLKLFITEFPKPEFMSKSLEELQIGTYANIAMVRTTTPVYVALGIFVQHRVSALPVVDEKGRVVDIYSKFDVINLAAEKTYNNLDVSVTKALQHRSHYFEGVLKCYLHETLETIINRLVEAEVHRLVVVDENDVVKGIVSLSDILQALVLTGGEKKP

Structure (SMILES) | % Maximum AMP Activation of human AMPK Complex 1 [1] [%] | EC50 [1] [nM] | blood glucose reduction (ob/ob and db/db mice) [%]
O=C(O)C1CC(Oc2nc3c(F)c(-c4ccc(-c5ccccc5)cc4)c(F)cc3[nH]2)C1 (stereo not drawn) [Example 18, 3-{[5-(biphenyl-4-yl)-4,6-difluoro-1H-benzimidazol-2-yl]oxy}cyclobutanecarboxylic acid] | 538 | 14 | 
O=C(O)C1CC1COc1nc2c(F)c(-c3ccc(-c4ccccc4)cc3)c(F)cc2[nH]1 (stereo not drawn) [Example 19, 2-({[5-(biphenyl-4-yl)-4,6-difluoro-1H-benzimidazol-2-yl]oxy}methyl)cyclopropane-carboxylic acid] | 631 | 17 | 
O=C(O)C1CCC(Oc2nc3c(F)c(-c4ccc5c(ccn5C5CC5)c4)c(F)cc3[nH]2)CC1 (stereo not drawn) [Example 21, 4-{[5-(1-Cyclopropyl-1H-indol-5-yl)-4,6-difluoro-1H-benzimidazol-2-yl]oxy}cyclohexanecarboxylic acid] | 504 | 4 | 
NC(=O)c1ncn([C@@H]2O[C@H](CO)[C@@H](O)[C@H]2O)c1N [AICAR] |  |  | 35
O=C(O)C1CCC(Oc2nc3c(F)c(-c4ccc(-c5ccc(C(=O)N6CCC(O)CC6)cc5)cc4)c(F)cc3[nH]2)CC1 (single isomer, unassigned) [Example 20, 4-[(4,6-difluoro-5-{4′-[(4-hydroxypiperidin-1-yl)carbonyl]biphenyl-4-yl}-1H-benzimidazol-2-yl)oxy]cyclohexanecarboxylic acid] | 642 | 10 | 
O=C(O)C1CCC(Oc2nc3c(F)c(-c4ccc(-c5ccccc5)cc4)c(F)cc3[nH]2)CC1 (stereo not drawn) [Example 15, 4-{[5-(biphenyl-4-yl)-4,6-difluoro-1H-benzimidazol-2-yl]oxy}-cyclohexane carboxylic acid] | 653 | 10 | 
O=C(O)C1CCCC(Oc2nc3c(F)c(-c4ccc(-c5ccccc5)cc4)c(F)cc3[nH]2)C1 (stereo not drawn) [Example 16, 3-{[5-(biphenyl-4-yl)-4,6-difluoro-1H-benzimidazol-2-yl]oxy}cyclohexanecarboxylic acid] | 617 | 6 | 
O=C(O)C1CCC(Oc2nc3c(F)c(-c4ccc(-c5ccccc5)cc4)c(F)cc3[nH]2)C1 (stereo not drawn) [Example 17, 3-{[5-(biphenyl-4-yl)-4,6-difluoro-1H-benzimidazol-2-yl]oxy}cyclopentanecarboxylic acid] | 593 | 13 | 
